Measured values taken from patent US20160347807A1, “TARGETING P53 AND ITS DNA-BINDING DOMAIN” (UNIVERSITY OF UTAH RESEARCH DOUNDATION, priority 2014, published 2016).
Entries after “also recorded” stand apart in the source; their conditions may differ.

Tests used:
T47D cells [1] = assay: 7-AAD assay in T47D cells; format: cell-based, human; conditions: 48 h after transfection, EGFP positive cells only
Protocol: (§1) Transfected T47D, MCF-7, MDA-MB-231, HeLa and H1373 cells were pelleted and resuspended in 500 μL PBS (Invitrogen) containing 1 μM 7-aminoactinomycin D (7-AAD) (Invitrogen) for 30 min prior to analysis following the recommended protocol from the manufacturer. The assay was performed 48 h after transfection for T47D, MCF-7 and H1373 and 24 h after transfection for MDA-MB-231 and HeLa. Only EGFP positive cells were analyzed by using the FACS Canto-II (BD-BioSciences) with FACS Diva software. EGFP and 7-AAD were excited with the 488 nm laser, and were detected at 507 nm and 660 nm, respectively. Independent transfections of each construct were tested three times (n=3).
(§2) Transfected T47D, H1373, SKOV-3 and HeLa cells were pelleted and re-suspended in 500 μL PBS (Invitrogen) containing 1 μM 7-aminoactinomycin D (7-AAD) (Invitrogen) for 30 min prior to analysis. T47D and H1373 cells were analyzed 48 h after transfection, while SKOV-3 and HeLa cells were analyzed 24 h after transfection (time points optimized empirically). Only EGFP positive cells were assayed using the FACS Canto-II (BD-BioSciences) with FACS Diva software as previously. EGFP and 7-AAD were excited at 488 nm, and detected at 507 nm and 660 nm, respectively. Independent transfections of each construct were assayed three times (n=3). The highest value (EGFP positive cells stained with 7-AAD) was set at 100%, and the lowest at 0% (relative 7-AAD) as previously.

T47D cells [2] = assay: Annexin V assay in T47D cells; format: cell-based, human; conditions: 48 h after transfection
Protocol: 48 h after transfection, T47D cells were pelleted and resuspended in 400 μL of annexin-V binding buffer (Invitrogen) and incubated with 5 μL of annexin-APC (annexin-V conjugated to allophycocyanin, Invitrogen) for 15 min as before. Only transfected cells were analyzed as mentioned in 7-AAD assay. EGFP and APC were excited at 488 nm and 635 nm wavelengths, respectively and detected at their corresponding 507 nm and 660 nm wavelengths. Independent transfections of each construct were tested three times (n=3).

T47D cells [3] = assay: TUNEL assay in T47D cells; format: cell-based, human; conditions: 48 h after transfection
Protocol: T47D cells were harvested 48 h after transfection. In situ Death Detection Kit, TMR red (Roche, Mannheim, Germany) was used following manufacturer's recommendations as before. Cells were resuspended in PBS (Invitrogen) and analyzed via the FACSAria-II (BD-Biosciences, University of Utah Core Facility). EGFP and TMR red were excited at 488 nm and 563 nm, respectively, and FACSDiva software was used to analyze the data. Independent transfections of each construct were tested three times (n=3).

T47D cells [4] = assay: Colony forming assay in T47D cells; format: cell-based, human; conditions: eight days after treatment
Protocol: Transfected T47D cells were harvested 24 h post transfection and resuspended in RPMI (Invitrogen) at a concentration of 3.0×10^5 cells/mL. The Cytoselect® 96-well cell transformation assay (Cell Biolabs, San Diego, Calif.) was used following manufacturer's recommendations. Equal amount of 1.2% Agar Solution, 2×DMEM/20% FBS media, and cell suspension (1:1:1) were mixed and 75 μL of the mixture was added to a 96-well plate containing a solidified base agar layer (50 μL of previously solidified 1.2% Agar Solution), and allowed to solidify at 4° C. for 15 min. The following steps were performed according to the manufacture's recommendations. A Spectra Max M2 plate reader (Molecular Devices, Sunnyvale, Calif.) was used to detect fluorescence using a 485/520 nm filter set. Independent transfections of each construct were tested three times (n=3).

MCF-7 = assay: 7-AAD assay in MCF-7 cells; format: cell-based, human; conditions: MCF-7, 48 h post transfection
Protocol: as §1

MDA-MB-231 = assay: 7-AAD assay in MDA-MB-231 cells; format: cell-based, human; conditions: MDA-MB-231, 24 h after transfection
Protocol: as §1

HeLa cells = assay: 7-AAD assay in HeLa cells; format: cell-based, human; conditions: 24 h after transfection
Protocol: as §1, §2

H1373 cells [5] = assay: 7-AAD assay in H1373 cells; format: cell-based, human; conditions: H1373 (p53 null), 48 h after transfection
Protocol: as §1, §2

T47D cells [6] = assay: Caspase-9 assay (SR FLICA) in T47D cells; format: cell-based, human; conditions: 48 h after transfection
Protocol: T47D cells were probed 48 h after transfection using SR FLICA Caspase-9 Assay Kit (Immunochemistry Technologies, Bloomington, Minn.). Cells were incubated with SR FLICA Caspase-9 reagent for 60 min per manufacturer's recommendations, pelleted and resuspended in 300 μL 1× wash buffer (Immunochemistry Technologies). Only EGFP positive cells were analyzed by using the FACS Canto-II (BD-BioSciences) with FACS Diva software. EGFP and FLICA were excited with the 488 nm (emission filter 530/35) and the 561 laser (emission filter 585/15), respectively. Independent transfections of each construct were tested three times (n=3).
As previously described, 48 h after transfection, T47D cells were tested with SR FLICA Caspase-9 Assay Kit (Immunochemistry Technologies, Bloomington, Minn.). Cells were incubated with SR FLICA Caspase-9 reagent for 60 min, pelleted and re-suspended in 300 μL, 1× wash buffer (Immunochemistry Technologies). The FACS Canto-II with FACS Diva software was used to analyzed only EGFP positive cells stained with caspase-9, both were excited with the 488 nm (emission filter 530/35) and the 561 nm laser (emission filter 585/15), respectively. Independent transfections of each construct were assayed three times (n=3). The highest value (EGFP positive cells stained with caspase-9) was set as 100% and the lowest as 0% (relative caspase-9).

T47D cells [7] = assay: Rescue experiment using BFP-Bcl-XL (7-AAD) in T47D cells; format: cell-based, human; conditions: 48 h after transfection, Bcl-XL overexpression
Protocol: T47D cells were co-transfected with 1 pmol of EGFP constructs and 1 pmol of BFP-Bcl-XL (BFP tag is necessary for gating Bcl-XL transfected cells). 48 h after transfection the 7-AAD assay was performed as described above. FACSCanto-II (BD-BioSciences) and FACSDiva software were used for EGFP and BFP gating. Excitation was set at 488 nm, and detected at 507 nm and 660 nm for EGFP and 7-AAD, respectively. BFP was excited at 405 nm and detected at 457 nm. Independent transfections of each construct were tested three times (n=3).

H1373 cells [8] = assay: 7-AAD rescue experiment in H1373 cells with or without p53R248Wmut; format: cell-based, human; conditions: H1373, 48 h post transfection; for apoptotic activity (7-AAD) when co-transfected with p53R248Wmut: dominant negative mutant overexpressed
Protocol: E-XL was created by inserting MTS from XL into EGFP-C1 vector. Lipofectamine was used as the transfection reagent as before. 48 h post transfection, cells were stained as described in the 7-AAD assay and gated for EGFP and BFP using the FACSCanto-II (BD-BioSciences) and FACSDiva software. Excitation for BFP was set at 405 nm and detected at 457 nm. The means from three separate experiments (n=3) were analyzed using two-way ANOVA with Bonferroni's post hoc test.

endogenous Bcl-XL = target: T1, endogenous Bcl-XL (Homo sapiens, UniProt Q07817); assay: Co-immunoprecipitation with anti-GFP antibody, western blot for Bcl-XL; format: binding; conditions: T47D lysate 24 h post transfection, anti-GFP pull-down
T1 construct: endogenous in cells; host or cells: T47D human breast tumor cells
Protocol: Anti-GFP antibody (ab290, Abcam) was coupled to dynabeads using Dynabeads Antibody Coupling Kit (Invitrogen). 24 h post transfection, T47D cells were prepared using the Dynabeads Co-Immunoprecipitation Kit (Invitrogen). Cell pellets were lysed using extraction buffer B (1×IP, […] NaCl, 2 mM MgCl2, 1 mM DTT, 1% protease inhibitor). The lysate was incubated for 30 min at 4° C. with 1.5 mg of dynabeads coupled with anti-GFP antibody, and co-IP was performed per the company's protocol. The final protein complex was denatured and western blot was performed by using Bcl-XL antibody (ab 2568, Abcam).

SKOV-3 cells = assay: 7-AAD assay in SKOV-3 cells; format: cell-based, human
Protocol: as §2

| Substance | 7-AAD positive cells (late apoptosis) (T47D cells [1]) | Annexin V positive cells (apoptotic potential) (T47D cells [2]) | TUNEL positive cells (DNA fragmentation) (T47D cells [3]) | transformative ability (colonies, relative fluorescence units) (T47D cells [4]) | 7-AAD positive cells (late apoptosis) (MCF-7) | 7-AAD positive cells (late apoptosis) (MDA-MB-231) | 7-AAD positive cells (late apoptosis) (HeLa cells) | 7-AAD positive cells (late apoptosis) (H1373 cells [5]) | caspase-9 activation (T47D cells [6]) | apoptotic activity (7-AAD) on cotransfection of BFP-Bcl-XL (rescue) (T47D cells [7]) | apoptosis (7-AAD) in the absence of p53R248Wmut (H1373 cells [8]) | apoptotic activity (7-AAD) when co-transfected with p53R248Wmut (H1373 cells [8]) | co-immunoprecipitation with Bcl-XL (endogenous Bcl-XL) | 7-AAD positive cells (late apoptosis) (SKOV-3 cells; SKOV-3 (p53 null), 24 h after transfection) | apoptosis in SKOV-3 (assay not stated at place) (SKOV-3 cells; ovarian cancer cells SKOV-3) |
| --- | --- | --- | --- | --- | --- | --- | --- | --- | --- | --- | --- | --- | --- | --- | --- |
| DBD-XL: EGFP, DNA binding domain of p53 and MTS from Bcl-XL | statistically higher than the negative control E-XL; also recorded: not statistically significant from each other | significantly higher apoptotic response than p53-XL; also recorded: significantly higher than the negative control E-XL | not statistically significant from each other | significant decrease in transformative ability | significantly higher apoptotic activity compared to p53-XL | significantly higher apoptotic activity compared to p53-XL | statistically significant from p53-XL | significantly higher apoptotic activity compared to p53-XL | higher caspase-9 activation than E-XL | significantly reduced | significantly higher apoptosis compared to their negative controls E-XL and EGFP | capable of rescuing apoptotic activity | – | – | – |
| p53-XL: full length p53 with EGFP on the amino terminus and the MTS from Bcl-XL (XL) on the C-terminus | not statistically significant from each other | significantly higher than the negative control E-XL | not statistically significant from each other | significant decrease in transformative ability | – | – | – | – | higher caspase-9 activation than E-XL; also recorded: triggers caspase-9 activation significantly more than DBD-XL | significantly reduced | significantly higher apoptosis compared to their negative controls E-XL and EGFP | capable of rescuing apoptotic activity | co-immunoprecipitated; also recorded: co-immunoprecipitates with endogenous Bcl-XL | – | – |
| DBD-BakMTS: DBD of p53 cloned between EGFP and Bak MTS | significantly higher apoptosis compared to cells transfected with MTS negative controls; also recorded: trending higher; also recorded: induces robust apoptosis, similar to, or greater than wt p53 with MTS; also recorded: outperformed DBD-BaxMTS; also recorded: induces apoptosis in all 3 cell lines | – | – | – | – | – | significant from their corresponding negative controls; also recorded: trend of higher apoptotic activity in HeLa cells compared to p53-BakMTS; also recorded: induces robust apoptosis, similar to, or greater than wt p53 with MTS; also recorded: outperformed DBD-BaxMTS; also recorded: induces apoptosis in all 3 cell lines | statistically higher from their negative control E-BakMTS; also recorded: significantly higher activities compared to their positive controls; also recorded: induces robust apoptosis, similar to, or greater than wt p53 with MTS; also recorded: outperformed DBD-BaxMTS; also recorded: induces apoptosis in all 3 cell lines | – | – | – | – | – | significantly higher than their negative control E-BakMTS; also recorded: trending higher; also recorded: induces late stage apoptosis | triggers apoptosis |
